Where “and” joins values, the source holds several entries; their conditions need not be identical. Equal values may be shown once.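 Tested at 5 concentrations; 48 h exposure; 96-well plates; endpoints linearly interpolated, else capped at highest concentration. GI50: concentration for 50% inhibition of growth. TGI: total growth inhibition.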
Each molecule was assayed on HT29 colon (assay: NCI tumour cell line growth inhibition, 48 h).

First: Cc1ccccc1C(=O)N/N=C/c1ccc(Sc2nccn2C)c([N+](=O)[O-])c1
Second: COc1ccc2c(c1)[nH]c1c(/C=C/c3ccccc3)nccc12
The TGI of the first is higher: greater than 100 µM for the first, 33.9 µM for the second.

Compared with `CCn1c(-c2ccc(N=NNc3ccc(-c4n[nH]c(=S)n4CC)cc3)cc2)n[nH]c1=S`, `CC(=O)C1=C(C)N(c2ccc(C)cc2)C2(O)C=CC(=O)C3C(=O)N(c4ccccc4)C(=O)C132` (stereo not given) is lower in TGI: greater than 100 µM for the first, 44.8 µM for the second.

First: Clc1cc2c(cc1Cl)CC(NCCN1CCCC1)CC2 (stereo not given)
Second: C[C@H](CCC(=O)O)[C@H]1CC[C@@]2(C)[C@@H]3C(=O)C[C@H]4C(C)(C)[C@@H](O)CC[C@]4(C)[C@H]3C(=O)C[C@]12C
The TGI of the first is lower: 18.1 µM for the first, greater than 100 µM for the second.

`[N-]=[N+]=CC(=O)c1ccccc1C#CCCc1ccccc1` and `NCCSC(c1ccccc1)c1ccccc1` are within 1.5-fold of each other in TGI: 36.7 µM for the first, 35.5 µM for the second.

Going from `CCN(CC(=O)O)C(=O)c1cccnc1` to `COc1nc(C#CC2(O)CCCCC2)nc(OC)n1`, the TGI falls from greater than 100 µM to 45.4 µM.

`CCCCCCCCC/C=C/C=C/C(=O)NCC(=O)NC1C(O)C(O)C(Nc2ncnc3nc[nH]c23)OC1C(O)CO` (stereo not given) showed a GI50 of 0.000103 µM.

In the case of `CCCCCCCCC/C=C/C=C/C(=O)NCC(=O)NC1C(O)C(O)C(Nc2ncnc3nc[nH]c23)OC1C(O)CO` (stereo not given), the TGI is reported as 0.349 µM and 0.117 µM.

These molecules were tested on A549 NSCLC (assay: NCI tumour cell line growth inhibition, 48 h).

`CCOC(=O)C1=NN(c2ccc(C)cc2)C2=CC(C)=NN(C)C(=S)N21` and `CC(=O)C1=C(C)N(c2ccc(C)cc2)C2(O)C=CC(=O)C3C(=O)N(c4ccccc4)C(=O)C132` (stereo not given) cannot be ordered by TGI: greater than 100 µM for the first, greater than 100 µM for the second.

`O=C(c1cccs1)N(C(=S)OC12CC3CC(CC(C3)C1)C2)c1ccccc1` and `O=C(O)C1C2CCC(O2)C1C(=O)Nc1cccc2cccnc12` (stereo not given) cannot be ordered by TGI: greater than 100 µM for the first, greater than 100 µM for the second.

First: C(=N\NC1=NCCN1)/c1ccc(-c2cn3cc(/C=N/NC4=NCCN4)ccc3n2)cc1
Second: CCn1c(-c2ccc(N=NNc3ccc(-c4n[nH]c(=S)n4CC)cc3)cc2)n[nH]c1=S
The TGI of the first is lower: 38.1 µM for the first, greater than 100 µM for the second.

Compared with `CC1CC[C@@]2(OC1)OC1C[C@H]3[C@@H]4CC=C5CC(OC6OC(CO)C(OC7OC(CO)C(O)C(OC8OCC(O)C(O)C8O)C7OC7OC(CO)C(O)C(O)C7O)C(O)C6O)CCC5(C)[C@H]4CCC3(C)C1[C@@H]2C` (stereo not given in full), `CC12CC3OC(=O)C1COC14OC5(C2C1=O)C(O)(CCC1C4CC(O)C2(O)CC=CC(=O)C12C)C(=O)OC35C` (stereo not given) is higher in TGI: 8.01 µM for the first, greater than 100 µM for the second.

`Nc1ccccc1S(=O)(=O)c1ccccc1` and `O=c1cccccc1[O-].O=c1cccccc1[O-].[O]=[U+2]=[O]` cannot be ordered by TGI: greater than 100 µM for the first, greater than 100 µM for the second.

Going from `Cc1c(N2C(=O)CS(=O)(=O)C2c2cccc(Oc3ccccc3)c2)c(=O)n(-c2ccccc2)n1C` (stereo not given) to `O=C(C[n+]1ccc2ccccc2c1)c1ccc2ccc3ccccc3c2c1`, the TGI falls from greater than 100 µM to 16.6 µM.

`COc1cc2c(ccc3c4cc(OC)c(OC)cc4c[n+](C)c23)cc1O` and `COc1ccc(C(=O)/C=C/c2cccc([N+](=O)[O-])c2)c(OC)c1` cannot be ordered by TGI: greater than 75 µM for the first, greater than 50 µM for the second.

`CNC(=O)OCc1c(CO)nc(SC)n1C` and `CCOC(=O)C(NC(=O)c1ccco1)(Nc1nc2ccc(OCC)cc2s1)C(F)(F)F` (stereo not given) cannot be ordered by TGI: greater than 100 µM for the first, greater than 100 µM for the second.

`CN(C)CC(CC1=C(CC(CN(C)C)N(C)C)CCC1)N(C)C` (stereo not given) and `C[C@H](CCC(=O)O)[C@H]1CC[C@@]2(C)[C@@H]3C(=O)C[C@H]4C(C)(C)[C@@H](O)CC[C@]4(C)[C@H]3C(=O)C[C@]12C` cannot be ordered by TGI: greater than 100 µM for the first, greater than 100 µM for the second.

`NC(=O)c1c(NC(=O)c2ccccn2)sc2c1CCC(=O)C2` and `Cc1ccccc1C(=O)N/N=C/c1ccc(Sc2nccn2C)c([N+](=O)[O-])c1` cannot be ordered by TGI: greater than 100 µM for the first, greater than 100 µM for the second.

First: CCC(C)C1=C(OC(C)=O)[N+]2([O-])Oc3ccc(-c4c(OC(C)=O)c(OC(C)=O)c(-c5ccc(OC(C)=O)cc5)c(OC(C)=O)c4OC(C)=O)cc3OC2(C(C)CC)C(=O)N1OC(C)=O (stereo not given)
Second: NCCCCc1cc(O)c2c(c1O)C(=O)c1ccccc1C2=O
The TGI of the first is higher: greater than 50 µM for the first, 16.9 µM for the second.

First: COc1cccc2c1Cc1cc(-c3ccccc3)[n+](C)n1-2
Second: COc1ccc2c(c1)[nH]c1c(/C=C/c3ccccc3)nccc12
The TGI of the first is higher: greater than 100 µM for the first, 37.2 µM for the second.

First: O=C(OCN1C(=O)C2C3C=CC(C2C1=O)C1C2C(=O)N(COC(=O)C4CCCN4)C(=O)C2C31)C1CCCN1 (stereo not given)
Second: Clc1cc2c(cc1Cl)CC(NCCN1CCCC1)CC2 (stereo not given)
The TGI of the first is higher: greater than 100 µM for the first, 29.4 µM for the second.

`[N-]=[N+]=CC(=O)c1ccccc1C#CCCc1ccccc1` and `NCCSC(c1ccccc1)c1ccccc1` cannot be ordered by TGI: greater than 100 µM for the first, greater than 100 µM for the second.

First: CCN(CC(=O)O)C(=O)c1cccnc1
Second: COc1nc(C#CC2(O)CCCCC2)nc(OC)n1
The TGI of the first is higher: greater than 100 µM for the first, 28.1 µM for the second.

Going from `NC(=O)c1c(NC(=O)c2ccccn2)sc2c1CCC(=O)C2` to `COc1ccc(C(=O)/C=C/c2cccc([N+](=O)[O-])c2)c(OC)c1`, the GI50 falls from greater than 100 µM to 2.56 µM.

Work on `CCCCCCCCC/C=C/C=C/C(=O)NCC(=O)NC1C(O)C(O)C(Nc2ncnc3nc[nH]c23)OC1C(O)CO` (stereo not given) yielded a GI50 of 0.00608 µM.

These molecules were tested on IGROV1 ovarian (assay: NCI tumour cell line growth inhibition, 48 h).

Going from `CCOC(=O)C1=NN(c2ccc(C)cc2)C2=CC(C)=NN(C)C(=S)N21` to `CC(=O)C1=C(C)N(c2ccc(C)cc2)C2(O)C=CC(=O)C3C(=O)N(c4ccccc4)C(=O)C132` (stereo not given), the TGI falls from greater than 100 µM to 22.3 µM.

`C(=N\NC1=NCCN1)/c1ccc(-c2cn3cc(/C=N/NC4=NCCN4)ccc3n2)cc1` and `Cc1ccccc1C(=O)N/N=C/c1ccc(Sc2nccn2C)c([N+](=O)[O-])c1` cannot be ordered by TGI: greater than 64.5 µM for the first, greater than 100 µM for the second.

First: CC1CC[C@@]2(OC1)OC1C[C@H]3[C@@H]4CC=C5CC(OC6OC(CO)C(OC7OC(CO)C(O)C(OC8OCC(O)C(O)C8O)C7OC7OC(CO)C(O)C(O)C7O)C(O)C6O)CCC5(C)[C@H]4CCC3(C)C1[C@@H]2C (stereo not given in full)
Second: CC12CC3OC(=O)C1COC14OC5(C2C1=O)C(O)(CCC1C4CC(O)C2(O)CC=CC(=O)C12C)C(=O)OC35C (stereo not given)
The TGI of the first is lower: 8.06 µM for the first, greater than 100 µM for the second.

Going from `Nc1ccccc1S(=O)(=O)c1ccccc1` to `O=c1cccccc1[O-].O=c1cccccc1[O-].[O]=[U+2]=[O]`, the TGI falls from greater than 100 µM to 50.9 µM.

`Cc1c(N2C(=O)CS(=O)(=O)C2c2cccc(Oc3ccccc3)c2)c(=O)n(-c2ccccc2)n1C` (stereo not given) and `CCC1CN(C(=O)c2ccccc2)C(Cc2c[nH]c3ccccc23)C(=O)C1CC(=O)OC` (stereo not given) cannot be ordered by TGI: greater than 100 µM for the first, greater than 100 µM for the second.

`COc1cc2c(ccc3c4cc(OC)c(OC)cc4c[n+](C)c23)cc1O` and `COc1cccc2c1Cc1cc(-c3ccccc3)[n+](C)n1-2` cannot be ordered by TGI: greater than 75 µM for the first, greater than 100 µM for the second.

First: CNC(=O)OCc1c(CO)nc(SC)n1C
Second: COc1nc(C#CC2(O)CCCCC2)nc(OC)n1
The TGI of the first is higher: greater than 100 µM for the first, 23.1 µM for the second.

`CN(C)CC(CC1=C(CC(CN(C)C)N(C)C)CCC1)N(C)C` (stereo not given) and `C[C@H](CCC(=O)O)[C@H]1CC[C@@]2(C)[C@@H]3C(=O)C[C@H]4C(C)(C)[C@@H](O)CC[C@]4(C)[C@H]3C(=O)C[C@]12C` cannot be ordered by TGI: greater than 100 µM for the first, greater than 100 µM for the second.

`NC(=O)c1c(NC(=O)c2ccccn2)sc2c1CCC(=O)C2` and `O=C(O)C1C2CCC(O2)C1C(=O)Nc1cccc2cccnc12` (stereo not given) cannot be ordered by TGI: greater than 100 µM for the first, greater than 100 µM for the second.

First: CCC(C)C1=C(OC(C)=O)[N+]2([O-])Oc3ccc(-c4c(OC(C)=O)c(OC(C)=O)c(-c5ccc(OC(C)=O)cc5)c(OC(C)=O)c4OC(C)=O)cc3OC2(C(C)CC)C(=O)N1OC(C)=O (stereo not given)
Second: NCCCCc1cc(O)c2c(c1O)C(=O)c1ccccc1C2=O
The TGI of the first is 1.5-fold higher: 34.4 µM for the first, 22.2 µM for the second.

First: O=C(OCN1C(=O)C2C3C=CC(C2C1=O)C1C2C(=O)N(COC(=O)C4CCCN4)C(=O)C2C31)C1CCCN1 (stereo not given)
Second: Clc1cc2c(cc1Cl)CC(NCCN1CCCC1)CC2 (stereo not given)
The TGI of the first is higher: greater than 100 µM for the first, 29 µM for the second.

Going from `O=C(C[n+]1ccc2ccccc2c1)c1ccc2ccc3ccccc3c2c1` to `[N-]=[N+]=CC(=O)c1ccccc1C#CCCc1ccccc1`, the TGI rises from 17.2 µM to greater than 100 µM.

Going from `COc1ccc2c(c1)[nH]c1c(/C=C/c3ccccc3)nccc12` to `NCCSC(c1ccccc1)c1ccccc1`, the TGI falls from greater than 100 µM to 27.8 µM.

Going from `CCN(CC(=O)O)C(=O)c1cccnc1` to `CCCCCCCCC/C=C/C=C/C(=O)NCC(=O)NC1C(O)C(O)C(Nc2ncnc3nc[nH]c23)OC1C(O)CO` (stereo not given), the TGI falls from greater than 100 µM to 0.00337 µM.

For `NC(=O)c1c(NC(=O)c2ccccn2)sc2c1CCC(=O)C2`, the GI50 was 3.24 µM.

The molecules below were run on CAKI-1 renal (assay: NCI tumour cell line growth inhibition, 48 h).

`CCOC(=O)C1=NN(c2ccc(C)cc2)C2=CC(C)=NN(C)C(=S)N21` gave a TGI of 55.1 µM.
